Key:
CSNK1G2 = molecular target: T1, CSNK1G2 (Homo sapiens, UniProt P78368); assay: KINOMEscan scanEDGE; type: binding; conditions: read-out: % Control (1µM)
T1 construct: purchased DiscoveRx KINOMEscan (scanEDGE); Thermo Fisher SelectScreen (Z'-LYTE) for PLK-1
Procedure: (§1) Compound X was assayed at 1 μM in the DiscoveRx KINOMEscan (scanEDGE) assay platform. The results for single-concentration binding interactions are reported as “%Ctrl” (DMSO = 100%Ctrl), where lower numbers indicate stronger hits.

[1] = molecular target: T2, ABL1(T315I)-phosphorylated (Homo sapiens, UniProt P00519, T315I); assay: KINOMEscan scanEDGE; type: binding; conditions: read-out: % Control (1µM)
T2 construct: purchased DiscoveRx KINOMEscan (scanEDGE); Thermo Fisher SelectScreen (Z'-LYTE) for PLK-1
Procedure: as §1

HeLa cells = assay: Mitotic arrest and mitotic markers in HeLa cells (Western blot); type: cell-based
Procedure: Protein extracts of cells were prepared by lysis in radioimmunoprecipitation assay buffer (Sigma) supplemented with protease inhibitors (complete protease inhibitor cocktail, Roche). Protein extracts (25 μg) were separated by sodium dodecyl sulfate-polyacrylamide gel electrophoresis and transferred onto poly(vinylidene difluoride) membranes using the Trans-Blot Turbo transfer system (BioRad). After blocking with 5% bovine serum albumin in PBS with 0.1% Tween-20 for 30 min, the membrane was incubated with primary antibodies for 1 h at room temperature. Horseradish peroxidase-linked secondary antibodies were incubated 30 min at room temperature followed by enhanced chemiluminescence (ECL) detection (ECL Western blot substrate, Pierce).
Primary antibodies were obtained from the following sources: PLK-1 (05-844) and phosphohistone H3 (Ser10) (05806) from Millipore; pPlk1-T210 (5472) from Cell Signaling; pPlk1-S137 (21738) from Abcam; and cyclin B1 (GNS1) and β-actin (A2228) from Sigma-Aldrich served as loading control.

PAMPA permeability assay = type: in vitro ADME; conditions: pH 7.4
From the text: Table 3 Physicochemical Properties of 16k | column: result

BRD1 = molecular target: T3, BRD1 (Homo sapiens, UniProt O95696); assay: Bromodomain thermal shift screening (DSF); type: binding; conditions: Group IV
T3 construct: Bromodomain thermal shift screening data for 16k
T3 sequence (O95696 562-666 limits assumed): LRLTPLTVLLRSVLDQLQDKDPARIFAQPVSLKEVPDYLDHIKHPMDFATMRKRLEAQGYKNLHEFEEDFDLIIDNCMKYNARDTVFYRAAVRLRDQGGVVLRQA
Procedure: (§2) BRD4 thermal shift was measured in a differential scanning fluorimetry (DSF) assay. The assay was performed on a Stratagene Mx3005P system quantitative polymerase chain reaction (qPCR). The assay was performed in 96-well plates with 20 μL of protein at 2 μM in DSF-assay buffer (10 mM HEPES pH 7.5, 500 mM NaCl) to which 4 μL of Sypro orange dye and 0.4 μL of 10 μM compound in DMSO was added. The plate was sealed and centrifuged (1 min, 1000 rpm), and the qPCR machine was used to detect SYPRO fluorescence while increasing the temperature from 25 to 95 °C in 71 cycles. The sigmoidal part of the fluorescence signal was fitted using the Boltzmann equation, the points of change were defined, and the thermal shift was calculated by subtracting the protein/DMSO Tm shift from the protein/compound Tm shift.

SMARCA2A = molecular target: T4, SMARCA2A (Homo sapiens, UniProt P51531); assay: Bromodomain thermal shift screening (DSF); type: binding; conditions: Group VIII
T4 construct: Bromodomain thermal shift screening data for 16k
T4 sequence (P51531 1378-1506 limits assumed): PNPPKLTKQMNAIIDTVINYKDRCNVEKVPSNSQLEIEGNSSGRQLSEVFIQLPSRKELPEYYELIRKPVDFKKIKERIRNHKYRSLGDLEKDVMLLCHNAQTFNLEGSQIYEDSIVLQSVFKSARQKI
Procedure: as §2

TAF1A(1) = molecular target: T5, TAF1A(1) (Homo sapiens, UniProt P21675); assay: Bromodomain thermal shift screening (DSF); type: binding; conditions: Group VII
T5 construct: Bromodomain thermal shift screening data for 16k
T5 sequence (P21675 1397-1505 limits assumed): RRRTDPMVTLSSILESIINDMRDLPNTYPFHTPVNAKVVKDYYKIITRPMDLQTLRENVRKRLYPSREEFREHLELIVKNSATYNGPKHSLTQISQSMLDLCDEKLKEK
Procedure: as §2

BRDT(2) = molecular target: T6, BRDT(2) (Homo sapiens, UniProt Q58F21); assay: Bromodomain thermal shift screening (DSF); type: binding; conditions: Group II (BET)
T6 construct: Bromodomain thermal shift screening data for 16k
Procedure: as §2

BRDT(1) = molecular target: T7, BRDT(1) (Homo sapiens, UniProt Q58F21); assay: Bromodomain thermal shift screening (DSF); type: binding; conditions: Group II (BET)
T7 construct: Bromodomain thermal shift screening data for 16k
Procedure: as §2

PB1A(5) = molecular target: T8, PB1A(5) (Homo sapiens, UniProt Q86U86); assay: Bromodomain thermal shift screening (DSF); type: binding; conditions: Group VIII
T8 construct: Bromodomain thermal shift screening data for 16k
T8 sequence (Q86U86 653-763 limits assumed): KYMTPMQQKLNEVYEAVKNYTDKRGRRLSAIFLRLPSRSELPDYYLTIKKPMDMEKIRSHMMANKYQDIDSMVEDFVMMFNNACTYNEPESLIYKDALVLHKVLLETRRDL
Procedure: as §2

TAF1A(2) = molecular target: T9, TAF1A(2) (Homo sapiens, UniProt P21675); assay: Bromodomain thermal shift screening (DSF); type: binding; conditions: Group VII
T9 construct: Bromodomain thermal shift screening data for 16k
Procedure: as §2

PB1A(6) = molecular target: T10, PB1A(6) (Homo sapiens, UniProt Q86U86); assay: Bromodomain thermal shift screening (DSF); type: binding; conditions: Group VIII
T10 construct: Bromodomain thermal shift screening data for 16k
Procedure: as §2

TRIM33B = assay: Bromodomain thermal shift screening (DSF); type: binding; conditions: Group V
Procedure: as §2

BRD3(2) = molecular target: T11, BRD3(2) (Homo sapiens, UniProt Q15059); assay: Bromodomain thermal shift screening (DSF); type: binding; conditions: Group II (BET)
T11 construct: BRD3(2)
T11 sequence (Q15059 306-415 limits assumed, species assumed): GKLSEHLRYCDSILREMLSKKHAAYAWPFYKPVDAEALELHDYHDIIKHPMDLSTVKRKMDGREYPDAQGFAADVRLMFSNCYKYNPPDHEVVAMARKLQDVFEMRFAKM
Procedure: as §2

BRD2(1) = molecular target: T12, BRD2(1) (Homo sapiens, UniProt P25440); assay: Bromodomain thermal shift screening (DSF); type: binding; conditions: Group II (BET)
T12 construct: BRD2(1)
Procedure: as §2

SP100 = molecular target: T13, SP100 (Homo sapiens, UniProt P23497); assay: Bromodomain thermal shift screening (DSF); type: binding; conditions: Group V
T13 construct: Bromodomain thermal shift screening data for 16k
T13 sequence (P23497 1-885 isoform P23497-4): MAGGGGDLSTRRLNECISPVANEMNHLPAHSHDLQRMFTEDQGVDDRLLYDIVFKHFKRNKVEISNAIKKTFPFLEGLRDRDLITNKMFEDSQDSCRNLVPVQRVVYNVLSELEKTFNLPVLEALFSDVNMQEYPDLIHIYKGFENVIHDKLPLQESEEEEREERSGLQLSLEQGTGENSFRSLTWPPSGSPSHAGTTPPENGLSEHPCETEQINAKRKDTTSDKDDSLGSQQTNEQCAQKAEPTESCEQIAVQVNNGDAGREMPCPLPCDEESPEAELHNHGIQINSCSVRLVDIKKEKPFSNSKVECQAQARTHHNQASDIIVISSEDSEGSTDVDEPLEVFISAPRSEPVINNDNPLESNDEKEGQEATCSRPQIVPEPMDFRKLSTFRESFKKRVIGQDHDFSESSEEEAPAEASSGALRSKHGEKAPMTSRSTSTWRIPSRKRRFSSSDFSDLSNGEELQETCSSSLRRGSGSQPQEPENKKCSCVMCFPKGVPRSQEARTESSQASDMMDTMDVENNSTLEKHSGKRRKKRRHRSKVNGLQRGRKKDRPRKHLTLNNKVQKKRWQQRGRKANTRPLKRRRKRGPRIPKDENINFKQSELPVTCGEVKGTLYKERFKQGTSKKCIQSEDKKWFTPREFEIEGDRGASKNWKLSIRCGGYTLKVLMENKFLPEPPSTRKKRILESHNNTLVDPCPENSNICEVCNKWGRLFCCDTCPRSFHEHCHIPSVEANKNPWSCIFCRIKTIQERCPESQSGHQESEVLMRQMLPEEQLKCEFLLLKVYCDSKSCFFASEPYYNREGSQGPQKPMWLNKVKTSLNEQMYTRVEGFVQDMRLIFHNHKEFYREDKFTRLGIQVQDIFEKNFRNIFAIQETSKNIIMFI
Procedure: as §2

BRPF1A = molecular target: T14, BRPF1A (Homo sapiens, UniProt P55201); assay: Bromodomain thermal shift screening (DSF); type: binding; conditions: Group IV
T14 construct: Bromodomain thermal shift screening data for 16k
T14 sequence (P55201 626-746 isoform P55201-2 limits assumed): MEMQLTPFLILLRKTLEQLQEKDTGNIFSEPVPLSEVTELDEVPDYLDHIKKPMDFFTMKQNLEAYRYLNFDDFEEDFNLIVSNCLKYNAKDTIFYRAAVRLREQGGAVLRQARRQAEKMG
Procedure: as §2

BRD4(2) = molecular target: T15, BRD4(2) (Homo sapiens, UniProt O60885); assay: Bromodomain thermal shift screening (DSF); type: binding; conditions: Group II (BET)
T15 construct: BRD4(2)
Procedure: as §2

PCAF = molecular target: T16, PCAF (Homo sapiens, UniProt Q92831); assay: Bromodomain thermal shift screening (DSF); type: binding; conditions: Group I
T16 construct: Bromodomain thermal shift screening data for 16k
T16 sequence (Q92831 723-827 limits assumed): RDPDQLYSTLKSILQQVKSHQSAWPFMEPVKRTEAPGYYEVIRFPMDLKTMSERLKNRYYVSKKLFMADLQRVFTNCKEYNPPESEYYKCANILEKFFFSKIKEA
Procedure: as §2

EP300 = molecular target: T17, EP300 (Homo sapiens, UniProt Q09472); assay: Bromodomain thermal shift screening (DSF); type: binding; conditions: Group III
T17 construct: Bromodomain thermal shift screening data for 16k
T17 sequence (Q09472 1049-1156 limits assumed): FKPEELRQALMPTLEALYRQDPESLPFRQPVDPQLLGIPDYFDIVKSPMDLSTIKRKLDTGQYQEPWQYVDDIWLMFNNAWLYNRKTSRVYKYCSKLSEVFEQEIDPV
Procedure: as §2

BRD3(1) = molecular target: T18, BRD3(1) (Homo sapiens, UniProt Q15059); assay: Bromodomain thermal shift screening (DSF); type: binding; conditions: Group II (BET)
T18 construct: BRD3(1)
T18 sequence (Q15059 34-140 limits assumed, species assumed): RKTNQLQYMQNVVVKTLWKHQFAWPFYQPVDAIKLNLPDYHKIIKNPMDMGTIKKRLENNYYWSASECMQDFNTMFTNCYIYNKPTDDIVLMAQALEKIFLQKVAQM
Procedure: as §2

TAF1LA(1) = molecular target: T19, TAF1LA(1) (Homo sapiens, UniProt Q8IZX4); assay: Bromodomain thermal shift screening (DSF); type: binding; conditions: Group VII
T19 construct: Bromodomain thermal shift screening data for 16k
T19 sequence (Q8IZX4 1395-1503 limits assumed): as the sequence (P21675 1397-1505 limits assumed) above, with Y28H, R62C counted along it
Procedure: as §2

SMARCA2B = molecular target: T20, SMARCA2B (Homo sapiens, UniProt P51531); assay: Bromodomain thermal shift screening (DSF); type: binding; conditions: Group VIII
T20 construct: Bromodomain thermal shift screening data for 16k
T20 sequence (P51531 1373-1493 isoform P51531-2 limits assumed): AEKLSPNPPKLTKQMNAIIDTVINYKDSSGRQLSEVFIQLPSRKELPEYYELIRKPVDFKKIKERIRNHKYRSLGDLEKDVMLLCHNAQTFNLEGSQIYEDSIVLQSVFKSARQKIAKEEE
Procedure: as §2

WDR9 = assay: Bromodomain thermal shift screening (DSF); type: binding; conditions: Group VII
Procedure: as §2

SMARCA4A = molecular target: T21, SMARCA4A (Homo sapiens, UniProt P51532); assay: Bromodomain thermal shift screening (DSF); type: binding; conditions: Group VIII
T21 construct: Bromodomain thermal shift screening data for 16k
T21 sequence (P51532 1453-1564 limits assumed): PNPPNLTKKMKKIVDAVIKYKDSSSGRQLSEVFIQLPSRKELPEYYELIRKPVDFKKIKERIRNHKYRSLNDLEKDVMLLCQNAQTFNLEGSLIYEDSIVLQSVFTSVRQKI
Procedure: as §2

BRD2(2) = molecular target: T22, BRD2(2) (Homo sapiens, UniProt P25440); assay: Bromodomain thermal shift screening (DSF); type: binding; conditions: Group II (BET)
T22 construct: BRD2(2)
T22 sequence (P25440 344-453 limits assumed, species assumed): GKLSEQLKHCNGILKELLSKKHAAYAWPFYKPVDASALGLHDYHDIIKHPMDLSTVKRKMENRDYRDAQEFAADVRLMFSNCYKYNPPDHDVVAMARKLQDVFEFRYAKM
Procedure: as §2

TAF1LA(2) = molecular target: T23, TAF1LA(2) (Homo sapiens, UniProt Q8IZX4); assay: Bromodomain thermal shift screening (DSF); type: binding; conditions: Group VII
T23 construct: Bromodomain thermal shift screening data for 16k
T23 sequence (Q8IZX4 1517-1626 limits assumed): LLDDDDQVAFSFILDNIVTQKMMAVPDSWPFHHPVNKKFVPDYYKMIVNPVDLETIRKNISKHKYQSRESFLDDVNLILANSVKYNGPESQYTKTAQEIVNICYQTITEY
Procedure: as §2

PB1A(3) = molecular target: T24, PB1A(3) (Homo sapiens, UniProt Q86U86); assay: Bromodomain thermal shift screening (DSF); type: binding; conditions: Group VIII
T24 construct: Bromodomain thermal shift screening data for 16k
T24 sequence (Q86U86 381-487 limits assumed): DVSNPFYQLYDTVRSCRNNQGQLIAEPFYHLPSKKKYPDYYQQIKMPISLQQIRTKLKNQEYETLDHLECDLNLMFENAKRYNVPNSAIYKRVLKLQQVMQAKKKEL
Procedure: as §2

PB1A(1) = molecular target: T25, PB1A(1) (Homo sapiens, UniProt Q86U86); assay: Bromodomain thermal shift screening (DSF); type: binding; conditions: Group VIII
T25 construct: Bromodomain thermal shift screening data for 16k
T25 sequence (Q86U86 41-151 limits assumed): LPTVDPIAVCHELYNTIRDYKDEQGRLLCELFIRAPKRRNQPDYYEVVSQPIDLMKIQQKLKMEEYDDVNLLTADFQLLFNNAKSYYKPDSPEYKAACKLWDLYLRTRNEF
Procedure: as §2

PB1A(4) = molecular target: T26, PB1A(4) (Homo sapiens, UniProt Q86U86); assay: Bromodomain thermal shift screening (DSF); type: binding; conditions: Group VIII
T26 construct: Bromodomain thermal shift screening data for 16k
T26 sequence (Q86U86 518-625 limits assumed): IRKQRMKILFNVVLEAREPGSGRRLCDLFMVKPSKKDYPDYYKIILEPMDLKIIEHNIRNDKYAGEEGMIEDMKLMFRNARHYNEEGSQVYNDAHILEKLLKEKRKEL
Procedure: as §2

ALK WT = ALK WT (Homo sapiens, UniProt Q9UM73); assay: Biochemical ALK WT IC50; type: binding; conditions: geometric mean
Chain of ALK WT (Q9UM73 19-1620): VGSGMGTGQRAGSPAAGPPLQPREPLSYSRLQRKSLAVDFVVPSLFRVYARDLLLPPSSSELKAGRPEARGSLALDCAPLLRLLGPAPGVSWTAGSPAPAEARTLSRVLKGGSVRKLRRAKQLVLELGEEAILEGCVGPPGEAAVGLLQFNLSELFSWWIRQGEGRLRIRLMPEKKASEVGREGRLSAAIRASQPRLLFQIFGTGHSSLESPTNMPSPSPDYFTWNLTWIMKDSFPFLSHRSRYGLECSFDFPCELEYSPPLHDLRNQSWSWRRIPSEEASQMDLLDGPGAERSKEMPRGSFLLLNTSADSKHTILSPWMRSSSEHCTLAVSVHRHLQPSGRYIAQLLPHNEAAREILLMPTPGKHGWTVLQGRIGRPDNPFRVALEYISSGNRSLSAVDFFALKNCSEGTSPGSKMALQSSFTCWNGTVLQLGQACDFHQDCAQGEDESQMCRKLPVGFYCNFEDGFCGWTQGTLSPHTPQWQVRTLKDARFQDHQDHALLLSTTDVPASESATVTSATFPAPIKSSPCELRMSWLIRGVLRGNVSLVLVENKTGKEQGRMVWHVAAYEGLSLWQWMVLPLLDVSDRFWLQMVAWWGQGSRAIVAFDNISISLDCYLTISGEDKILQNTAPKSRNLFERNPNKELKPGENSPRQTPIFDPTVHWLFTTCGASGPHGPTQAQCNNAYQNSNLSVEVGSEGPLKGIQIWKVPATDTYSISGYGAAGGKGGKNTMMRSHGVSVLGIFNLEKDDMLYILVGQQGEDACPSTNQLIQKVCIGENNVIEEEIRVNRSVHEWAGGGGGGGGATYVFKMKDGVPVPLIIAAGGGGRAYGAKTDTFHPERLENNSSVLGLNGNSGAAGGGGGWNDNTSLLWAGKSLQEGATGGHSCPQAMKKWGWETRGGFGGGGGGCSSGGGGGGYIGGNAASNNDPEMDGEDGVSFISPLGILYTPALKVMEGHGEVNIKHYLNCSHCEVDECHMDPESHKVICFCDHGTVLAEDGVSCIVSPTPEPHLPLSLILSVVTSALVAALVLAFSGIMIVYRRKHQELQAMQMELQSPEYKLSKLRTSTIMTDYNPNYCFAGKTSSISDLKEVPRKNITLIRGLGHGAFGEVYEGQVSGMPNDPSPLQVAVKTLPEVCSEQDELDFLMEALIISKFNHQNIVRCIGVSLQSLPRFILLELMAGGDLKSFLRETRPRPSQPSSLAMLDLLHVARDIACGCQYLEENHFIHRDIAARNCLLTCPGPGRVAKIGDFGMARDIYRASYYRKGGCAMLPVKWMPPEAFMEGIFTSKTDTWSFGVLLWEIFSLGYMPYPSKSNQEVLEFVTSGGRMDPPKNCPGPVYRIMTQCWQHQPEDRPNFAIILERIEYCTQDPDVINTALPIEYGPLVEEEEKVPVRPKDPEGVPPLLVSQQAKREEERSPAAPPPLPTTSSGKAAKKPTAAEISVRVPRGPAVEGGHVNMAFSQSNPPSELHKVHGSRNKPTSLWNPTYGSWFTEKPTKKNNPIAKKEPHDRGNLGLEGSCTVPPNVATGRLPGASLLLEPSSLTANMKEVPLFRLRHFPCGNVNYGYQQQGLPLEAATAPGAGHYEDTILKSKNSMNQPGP

T1 sequence (P78368 whole entry): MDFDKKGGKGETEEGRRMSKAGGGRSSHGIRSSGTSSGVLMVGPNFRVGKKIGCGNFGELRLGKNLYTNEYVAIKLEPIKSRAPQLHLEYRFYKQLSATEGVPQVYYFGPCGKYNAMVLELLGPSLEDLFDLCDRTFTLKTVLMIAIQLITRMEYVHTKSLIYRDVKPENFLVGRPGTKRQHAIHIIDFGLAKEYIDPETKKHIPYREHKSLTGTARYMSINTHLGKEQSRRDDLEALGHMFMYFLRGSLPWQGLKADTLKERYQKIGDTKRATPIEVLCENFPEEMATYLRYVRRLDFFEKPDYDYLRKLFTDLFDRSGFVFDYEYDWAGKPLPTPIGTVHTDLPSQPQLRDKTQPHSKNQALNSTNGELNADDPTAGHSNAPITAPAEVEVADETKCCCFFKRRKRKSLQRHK

- remaining binding at 1 µM (CSNK1G2): 100%
- remaining binding at 1 µM [1]: 71%
- PAMPA pH7.4 (PAMPA permeability assay): 49 × 10^–6 cm/s
- Thermal Shift (BRD1): -0.15 K
- Thermal Shift (SMARCA2A): -2.4 K
- Thermal Shift (TAF1A(1)): -0.45 K
- Thermal Shift (BRDT(2)): 0.6 K
- Thermal Shift (BRDT(1)): 2.7 K
- Thermal Shift (PB1A(5)): -0.7 K
- Thermal Shift (TAF1A(2)): -1.05 K
- Thermal Shift (PB1A(6)): -2.75 K
- Thermal Shift (BRD3(2)): 5.9 K
- Thermal Shift (BRD2(1)): -0.95 K
- Thermal Shift (SP100): 0.05 K
- Thermal Shift (BRPF1A): 0.8 K
- Thermal Shift (BRD4(2)): 4.4 K
- Thermal Shift (PCAF): -1.65 K
- Thermal Shift (EP300): -1 K
- Thermal Shift (BRD3(1)): 7.3 K
- Thermal Shift (TAF1LA(1)): -3.4 K
- Thermal Shift (SMARCA2B): -0.35 K
- Thermal Shift (SMARCA4A): -4.5 K
- Thermal Shift (BRD2(2)): 3.95 K
- Thermal Shift (TAF1LA(2)): -2.9 K
- Thermal Shift (PB1A(3)): 0.35 K
- Thermal Shift (PB1A(1)): 1.95 K
- Thermal Shift (PB1A(4)): -0.1 K
- IC50 (ALK WT): 60 ± 12 nM
Compound: CCOc1cc(C2CCN(C)CC2)ccc1Nc1ncc2c(n1)N(Cc1cc(C)cs1)[C@H](CC)C(=O)N2C [16k, (R)-2-((2-Ethoxy-4-(1-methylpiperidin-4-yl)phenyl)amino)-7-ethyl-5-methyl-8-((4-methylthiophen-2-yl)methyl)-7,8-dihydropteridin-6(5H)-one]
- concentration up to which no increase in mitotic markers and PLK-1 phosphorylation sites (HeLa cells; HeLa cells, Western blot): > 10 µM
- selectivity window for ALK^F1174L over PLK-1 in cells (HeLa cells; based on the cellular data): 10–20 fold
- expected cellular PLK-1 potency after similar drop-off (HeLa cells; extrapolated from BI-2536 drop-off): > 2.5 µM
- Thermal Shift (TRIM33B): -1.2 K
- Thermal Shift (WDR9): -4.2 K

Reference: paper PMC6421522, “Designing Dual Inhibitors of Anaplastic Lymphoma Kinase (ALK) and Bromodomain-4 (BRD4) by Tuning Kinase Selectivity” (Journal of Medicinal Chemistry, 2019)
